Measured values reported in paper PMC3983855, “Identification and enzymatic characterization of acid phosphatase from Burkholderia gladioli” (BMC Research Notes, 2014).

Tested on: membrane-bound acid phosphatase (MBAcP)
Conditions: read-out: K0.5; 50 mM acetate pH 6.0, 37°C; membrane fraction; n = 1.3

SMILES: O=[N+]([O-])c1ccc(OP(=O)(O)O)cc1 [p-nitrophenylphosphate]
- Km: 65 µM
